Test systems include HCT-15 colon; HS 578T breast; MDA-MB-435; SF-268 CNS; SF-539 CNS; SK-MEL-28 melanoma; SNB-75 CNS; T-47D breast; UACC-257 melanoma; HCC-2998 colon.
Assay in all cases: inhibition of tumour cell growth, NCI panel, 48 h

Structures are written as SMILES.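 How tested: cells in 96-well plates exposed to compound for 48 hours at five concentrations. At the GI50, growth is halved. The concentration for full growth arrest is given as TGI.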

As to `COc1ccc(-c2cc(-c3cc(C)cc(Br)c3O)no2)cc1`, the TGI is greater than 100 µM with HCT-15 colon; greater than 100 µM in the test on HS 578T breast; greater than 100 µM in the test on MDA-MB-435; 22.8 µM in the test with SF-268 CNS; 25 µM with SF-539 CNS; greater than 100 µM in the test with SK-MEL-28 melanoma. In addition, the TGI was 8.73 µM in the test with SNB-75 CNS, 34 µM in the test with T-47D breast and greater than 100 µM with UACC-257 melanoma.

As for `O=C1/C(=C(/c2ccccc2)N2CCOCC2)Cc2ccccc21`, the GI50 in the test on HCC-2998 colon was 2.08 µM; with HCT-15 colon, 1.55 µM; in the test on HS 578T breast, 2.63 µM; with MDA-MB-435, 2.17 µM; in the test with SF-268 CNS it was 2.29 µM; in the test with SF-539 CNS, 1.9 µM. Besides, the GI50 in the test with SK-MEL-28 melanoma was 1.45 µM; in the test with SNB-75 CNS, 1.48 µM; with UACC-257 melanoma, 2.21 µM. The TGI in the test on HCC-2998 colon worked out at 4.26 µM; in the test on HCT-15 colon, 5.02 µM; with HS 578T breast it was 12.9 µM; in the test on MDA-MB-435, 6.87 µM; in the test on SF-268 CNS it was 6.35 µM; with SF-539 CNS, 3.91 µM. Further, the TGI in the test on SK-MEL-28 melanoma stood at 2.85 µM; in the test on SNB-75 CNS it was 3.66 µM; in the test with UACC-257 melanoma, 6.46 µM.

`Cc1cc(C)c(NC(=O)c2sc3nc4c(cc3c2N)C(=O)CCC4)c(C)c1`: the GI50 is 3.07 µM in the test on HCC-2998 colon; 2.59 µM in the test with HCT-15 colon; 4.51 µM in the test with HS 578T breast; 6.69 µM in the test on SF-268 CNS; 2.59 µM in the test with SF-539 CNS; 5.9 µM with SK-MEL-28 melanoma. For the same molecule, the GI50 was 2.28 µM in the test with SNB-75 CNS, 5 µM with T-47D breast and 10 µM with UACC-257 melanoma. Besides, the TGI is greater than 78.2 µM in the test on HCC-2998 colon; greater than 100 µM in the test with HCT-15 colon; greater than 100 µM in the test on HS 578T breast; greater than 100 µM with SF-268 CNS; greater than 30.6 µM with SF-539 CNS; greater than 100 µM in the test on SK-MEL-28 melanoma. Besides, the values for the TGI in the test on SNB-75 CNS, in the test with T-47D breast and in the test with UACC-257 melanoma were greater than 100 µM, greater than 63.5 µM and greater than 95.9 µM, respectively.

For `c1ccc(Sc2ccc(Cc3nc4cc5ccccc5cc4[nH]3)cc2)cc1`, the GI50 with HCT-15 colon was 0.205 µM; in the test with HS 578T breast it was 17.7 µM; in the test with MDA-MB-435, 11.9 µM; in the test on SF-268 CNS it was 8.48 µM; with SF-539 CNS it was 1.34 µM; in the test with SK-MEL-28 melanoma, 37.7 µM. Besides, the figures for the GI50 in the test with SNB-75 CNS, with T-47D breast and with UACC-257 melanoma were greater than 66.5 µM, 5.2 µM and 5.33 µM, respectively. Moreover, the TGI with HCT-15 colon was 53.9 µM; in the test with HS 578T breast it was 91.5 µM; in the test on MDA-MB-435, greater than 67.7 µM; in the test on SF-268 CNS it was greater than 100 µM; with SF-539 CNS, 19.5 µM; in the test with SK-MEL-28 melanoma, greater than 100 µM. Moreover, the TGI was greater than 100 µM in the test on SNB-75 CNS, 26.2 µM with T-47D breast and 29.1 µM in the test on UACC-257 melanoma.

Consider `COc1ccc(-c2nc3ccccn3c2/C=C/C(=O)c2cc(OC)c(OC)c(OC)c2)cc1OC`, for which the GI50 in the test on HCC-2998 colon is 3.79 µM; in the test on HCT-15 colon, 3.73 µM; with HS 578T breast, 1.85 µM; in the test with SF-268 CNS, 3.58 µM; with SF-539 CNS, 2.71 µM; in the test on SK-MEL-28 melanoma, 3.3 µM. Moreover, the GI50 is 3.92 µM in the test on SNB-75 CNS, 3.01 µM in the test with T-47D breast and 3.24 µM in the test with UACC-257 melanoma. The TGI in the test on HCC-2998 colon is 15.1 µM; in the test with HCT-15 colon, 35.1 µM; in the test with HS 578T breast, 9.82 µM; in the test on SF-268 CNS it was 65.2 µM; with SF-539 CNS, 14.7 µM; with SK-MEL-28 melanoma it was 14.7 µM. Further, the figures for the TGI in the test with SNB-75 CNS, in the test with T-47D breast and in the test on UACC-257 melanoma were greater than 100 µM, greater than 100 µM and 15.4 µM, respectively.

`COc1ccc(C[N+](C)(C)N)cc1OC`: the GI50 in the test on HCT-15 colon, with HS 578T breast, in the test with MDA-MB-435, with SF-268 CNS, in the test with SF-539 CNS and in the test on SK-MEL-28 melanoma was greater than 100 µM in each case. Besides, the GI50 in the test with SNB-75 CNS and in the test with UACC-257 melanoma was greater than 100 µM in each case. Besides, the TGI with HCT-15 colon, in the test with HS 578T breast, in the test on MDA-MB-435, in the test with SF-268 CNS, in the test on SF-539 CNS and in the test on SK-MEL-28 melanoma was greater than 100 µM each time. Also, the TGI in the test on SNB-75 CNS and with UACC-257 melanoma was greater than 100 µM throughout.

Take `CCNCCNc1cc(-c2ccc(C(F)(F)F)cc2)c(C#N)c2nc3ccccc3n12`: the GI50 with HCC-2998 colon was 1.8 µM; in the test with HCT-15 colon it was 0.612 µM; with HS 578T breast, 1.96 µM; with MDA-MB-435 it was 1.28 µM; with SF-268 CNS, 1.48 µM; in the test on SK-MEL-28 melanoma, 1.54 µM. In addition, the GI50 in the test on SNB-75 CNS was 1.23 µM; in the test on T-47D breast it was 0.79 µM; in the test with UACC-257 melanoma it was 2.18 µM. Moreover, the TGI came to 3.4 µM with HCC-2998 colon; 1.9 µM in the test on HCT-15 colon; 4.39 µM in the test on HS 578T breast; 2.56 µM in the test with MDA-MB-435; 3.04 µM in the test with SF-268 CNS; 3.05 µM with SK-MEL-28 melanoma. The TGI in the test with SNB-75 CNS was 2.54 µM; with T-47D breast, 2.6 µM; in the test with UACC-257 melanoma, 3.83 µM.

Consider `C=C(C)[C@@H]1CC[C@]2(CO)CC[C@]3(C)[C@H](CC[C@@H]4[C@@]5(C)C=C(C#N)C(=O)C(C)(C)[C@@H]5CC[C@]43C)[C@@H]12`, for which the GI50 was 2.03 µM with HCC-2998 colon; 1.89 µM in the test on HS 578T breast; 1.46 µM with SF-268 CNS; 2.61 µM in the test with SF-539 CNS; 1.04 µM in the test with SNB-75 CNS; 1.12 µM in the test with T-47D breast. Moreover, the GI50 in the test on UACC-257 melanoma was 1.29 µM. Further, the TGI is 4.22 µM in the test with HCC-2998 colon; 6.84 µM in the test with HS 578T breast; 4.78 µM in the test with SF-268 CNS; 8.34 µM in the test on SF-539 CNS; 3.39 µM in the test with SNB-75 CNS; 5.79 µM in the test with T-47D breast. Besides, the TGI in the test on UACC-257 melanoma came to 3.04 µM.

(Values after PubChem BioAssay (NCI).)
